“Also recorded” adds a separate entry of the source. Non-standard residues stand in square brackets, D forms with d. No end group written: not given here. pT = C[C@@H](OP(=O)(O)O)[C@H](N)C(=O)O
Assays:
[1] = molecular target: Fha7-267^WT; experiment: Isothermal titration calorimetry (ITC) of TssL/CHK2 peptides with Fha7-267^WT; assay type: binding, A. tumefaciens; settings: 25°C, 50 mM Tris-HCl (pH 8.0), 150 mM NaCl, 200 µM protein in cell, 6 mM peptide in syringe, result in words
Source text: Because FHA domains are well known to bind to pThr residues specifically [33]–[35], we hypothesized that Fha specifically binds Thr 14-phosphorylated TssL to activate type VI secretion. To test this hypothesis, we first performed isothermal titration calorimetry (ITC) analysis with purified Fha proteins and synthetic phosphorylated- and unphosphorylated TssL N-terminal peptides. Because of the instability of full-length Fha protein purified from E. coli (data not shown), we purified truncated Fha proteins with different lengths for the ITC experiments (Figure S6A). […] The binding affinity was ∼3-fold higher (Kd 0.54±0.07 mM) with a longer phosphorylated TssL peptide (DNPSSWQDLPpTVVEITEESR, p-TssL^20 mer) (Figure 6B). […] (Figure 6C, 6E).
Figure 6 Phosphorylated TssL is a direct binding partner of Fha. Isothermal titration calorimetry (ITC) of specific binding between Fha and TssL peptides. […]
ITC analysis was used to determine the binding affinity and stoichiometry between Fha and TssL T-14 peptide with use of the MicroCal iTC200 system (GE Healthcare) and analyzed with ORIGIN software. […] The titration heat was calculated to eliminate the effect of heat generated from titrating the ligand into buffer. […]

[2] = molecular target: Fha7-309^WT; experiment: Isothermal titration calorimetry (ITC) of TssL peptides with Fha7-309^WT; assay type: binding, A. tumefaciens; settings: 25°C, 50 mM Tris-HCl (pH 8.0), 150 mM NaCl, 200 µM protein in cell, 6 mM peptide in syringe, result in words
Description: ITC analysis was used to determine the binding affinity and stoichiometry between Fha and TssL T-14 peptide with use of the MicroCal iTC200 system (GE Healthcare) and analyzed with ORIGIN software. Truncated His-tagged Fha^7–267 and Fha^7–309 proteins were overexpressed and purified from E. coli BL21(DE3) as described. The proteins and various synthetic peptides were dissolved in buffer containing 50 mM Tris-HCl (pH 8.0), 150 mM NaCl. Synthetic phosphorylated TssL (DLPpTVVEI, p-TssL^8 mer; DNPSSWQDLPpTVVEITEESR, p-TssL^20 mer), unphosphorylated TssL (DLPTVVEI, TssL^8 mer), and phosphorylated CHK2 (VSpTQEL, p-CHK2^6 mer) peptides, were used to titrate the various Fha^7–267 or Fha^7–309 proteins at 25°C with a total 25 times of injections with 200 µM protein in the sample cell and 6 mM peptide in the injection syringe. The titration heat was calculated to eliminate the effect of heat generated from titrating the ligand into buffer. […]
Supplementary file ppat.1003991.s006.tif: Figure S6 SDS-PAGE analysis of purified Fha proteins and isothermal titration calorimetry (ITC) analysis. […] Five µg of purified Fha proteins (Fha7-267^WT, Fha7-267^R30AS46A, Fha7-309^WT) was analyzed by 12% SDS-PAGE and stained by Coomassie blue to ensure protein purity. […]

[3] = molecular target: Fha7-267^WT (truncated His-tagged Fha with the intact FHA domain) (Agrobacterium tumefaciens C58); experiment: ITC; MicroCal iTC200; 200 µM Fha protein in the sample cell, 6 mM peptide in the injection syringe, 25 injections, 25°C, 50 mM Tris-HCl (pH 8.0), 150 mM NaCl; One Set of Sites model with the N value fixed at 1
[4] = molecular target: Fha7-309^WT (longer version of the truncated Fha protein) (Agrobacterium tumefaciens C58); experiment: as above

Row | Molecule | equilibrium dissociation constant (Kd), binding not detectable [1] | binding affinity, not detectable [2] | Kd [3] [µM] | Kd [4] [µM]
1 | DLPTVVEI [TssL^8 mer, synthetic unphosphorylated TssL peptide (DLPTVVEI)] | could not detect the binding affinity; also recorded: Undetectable | undetectable | – | –
2 | VSpTQEL [p-CHK2^6 mer, 6 mer phosphorylated CHK2 peptide (VSpTQEL), control, reference compound] | could not detect the binding affinity; also recorded: Undetectable | – | – | –
3 | DNPSSWQDLP[pT]VVEITEESR [20 mer phosphorylated TssL peptide (…p…)] | – | – | 540 | –
4 | DLP[pT]VVEI [8 mer phosphorylated TssL peptide (DLPpTVVEI)] | – | – | 1580 | 2150
